pIC50: −log10 of the molar value.
The molecules below were run against T1, PLD (phospholipase D) (assay: In vitro assay of PLD activity ([3H]-choline release from labelled PC)). Conditions: Table 1, monocyclic thiazolidinones of Formula I; PLD isoform not stated; read-out: IC50.
T1 construct: fused on or other part: N-terminal polyhistidine tag (pFastBac HTc) on either enzyme
Assay type: biochemical, human
Description: Recombinant PLD1 and PLD2—Human PLD1 and PLD2 were isolated from Sf9 insect cells that had been infected with recombinant baculovirus vector, pFastBac™HTc vector (Life Technologies, Gaithersburg, Md.), containing PLD1 or PLD2 cDNAs.
PLD1 activity was assayed by measuring the generation of [^3H]-choline from [choline-methyl^3H](16:0, 16:0)PC.
The assay procedure for PLD2 was similar to that for PLD1, with the exception that arf1, PKC-α, and GTPγS were omitted from the reaction mixture. After addition of enzymes, the reactions were incubated for 1 hour at room temperature. Twenty microliters of 12% trichloroacetic acid (TCA) then were added to each sample, to stop the reaction and to precipitate the unreacted [choline-methyl^3H](16:0, 16:0)PC. Thereafter, the samples were passed through 0.65 μm Millipore 96 well filter plates to removed the excess [choline-methyl^3H](16:0, 16:0)PC. For each sample the filtrate (50 μl), which contained the [^3H]-choline released by PLD cleavage of PC, was analyzed using a TopCount™ Liquid Scintillation Counter, a product of Packard (Meriden, Conn.).

pIC50 | Structure (SMILES)
5.22 | Cc1ccc(CN2C(=O)/C(=C/c3ccc(-c4ccc(S(N)(=O)=O)cc4)o3)SC2=S)cc1 [Compound 38, 4-{5-[3-(4-methyl-benzyl)-4-oxo-2-thioxo-thiazolidin-5-ylidenemethyl]-furan-2-yl}-benzenesulfonamide]
5.40 | N#Cc1ccc(-c2ccc(/C=C3\SC(=S)N(Cc4cccnc4)C3=O)o2)cc1 [Compound 39, 4-[5-(4-oxo-3-pyridin-3-ylmethyl-2-thioxo-thiazolidin-5-ylidenemethyl)-furan-2-yl]-benzonitrile]
5.10 | CN(C)c1ccc(/C=C/C=C2\SC(=S)N(c3ccc(C(=O)O)cc3)C2=O)cc1 [Compound 40, 4-{5-[3-(4-dimethylamino-phenyl)-allylidene]-4-oxo-2-thioxo-thiazolidin-3-yl}-benzoic acid]
5.70 | O=C(O)c1ccc(N2C(=O)/C(=C/c3cc4ccccc4o3)SC2=S)cc1 [Compound 41, 4-(5-benzofuran-2-ylmethylene-4-oxo-2-thioxo-thiazolidin-3-yl)-benzoic acid]

Same assay, conditions: Table 2, bicyclic thiazolidinones of Formula II; PLD isoform not stated; read-out: IC50

Structure (SMILES) | pIC50
CCOC(=O)C1=C(C)N=c2s/c(=C\c3ccc(-c4ccc(C(=O)O)cc4)o3)c(=O)n2C1c1ccc(OC)c(OC)c1 (stereo not shown) [Compound 42, 2-[5-(4-Carboxy-phenyl)-furan-2-ylmethylene]-5-(3,4-dimethoxy-phenyl)-7-methyl-3-oxo-2,3-dihydro-5H-thiazolo[3,2-a]pyrimidine-6-carboxylic acid ethyl ester] | 5.35
CCOC(=O)C1=C(C)N=c2s/c(=C\c3ccc(-c4ccc(C(=O)O)cc4)o3)c(=O)n2C1c1ccc(N(C)C)cc1 (stereo not shown) [Compound 43, 2-[5-(4-Carboxy-phenyl)-furan-2-ylmethylene]-5-(4-dimethylamino-phenyl)-7-methyl-3-oxo-2,3-dihydro-5H-thiazolo[3,2-a]pyrimidine-6-carboxylic acid ethyl ester] | 5.57
CCOC(=O)C1=C(C)N=c2s/c(=C\c3ccc(-c4ccc(C(=O)O)cc4)o3)c(=O)n2C1c1ccc2c(c1)OCO2 (stereo not shown) [Compound 44, 5-Benzo[1,3]dioxol-5-yl-2-[5-(4-carboxy-phenyl)-furan-2-ylmethylene]-7-methyl-3-oxo-2,3-dihydro-5H-thiazolo[3,2-a]pyrimidine-6-carboxylic acid ethyl ester] | 5.64
CCOC(=O)C1=C(C)N=c2s/c(=C\c3ccc(-c4ccc(Cl)c(C(=O)O)c4)o3)c(=O)n2C1c1ccc(N(C)C)cc1 (stereo not shown) [Compound 45, 2-[5-(3-Carboxy-4-chloro-phenyl)-furan-2-ylmethylene]-5-(4-dimethylamino-phenyl)-7-methyl-3-oxo-2,3-dihydro-5H-thiazolo[3,2-a]pyrimidine-6-carboxylic acid ethyl ester] | 5.72
CCOC(=O)C1=C(C)N=c2s/c(=C\c3ccc(-c4cccc(C(=O)O)c4)o3)c(=O)n2C1c1ccc(OC)cc1 (stereo not shown) [Compound 47, 2-[5-(3-Carboxy-phenyl)-furan-2-ylmethylene]-5-(4-methoxy-phenyl)-7-methyl-3-oxo-2,3-dihydro-5H-thiazolo[3,2-a]pyrimidine-6-carboxylic acid ethyl ester] | 5.70
CCOC(=O)C1=C(C)N=c2s/c(=C\c3ccc(-c4cccc(C(=O)O)c4)o3)c(=O)n2C1c1ccc(C)cc1 (stereo not shown) [Compound 49, 2-[5-(3-Carboxy-phenyl)-furan-2-ylmethylene]-7-methyl-3-oxo-5-p-tolyl-2,3-dihydro-5H-thiazolo[3,2-a]pyrimidine-6-carboxylic acid ethyl ester] | 5.55
CCOC(=O)C1=C(C)N=c2s/c(=C\c3ccc(-c4ccc(C(=O)O)cc4)o3)c(=O)n2C1c1ccc(Cl)cc1 (stereo not shown) [Compound 50, 2-[5-(4-Carboxy-phenyl)-furan-2-ylmethylene]-5-(4-chloro-phenyl)-7-methyl-3-oxo-2,3-dihydro-5H-thiazolo[3,2-a]pyrimidine-6-carboxylic acid ethyl ester] | 5.47
CCOC(=O)C1=C(C)N=c2s/c(=C\c3ccc(-c4cccc(C(=O)O)c4)o3)c(=O)n2C1c1ccc2c(c1)OCO2 (stereo not shown) [Compound 51, 5-Benzo[1,3]dioxol-5-yl-2-[5-(3-carboxy-phenyl)-furan-2-ylmethylene]-7-methyl-3-oxo-2,3-dihydro-5H-thiazolo[3,2-a]pyrimidine-6-carboxylic acid ethyl ester] | 5.57
CCOC(=O)C1=C(C)N=c2s/c(=C\c3ccc(-c4cccc(C(=O)O)c4)o3)c(=O)n2C1c1ccc(N(C)C)cc1 (stereo not shown) [Compound 55, 2-[5-(3-Carboxy-phenyl)-furan-2-ylmethylene]-5-(4-dimethylamino-phenyl)-7-methyl-3-oxo-2,3-dihydro-5H-thiazolo[3,2-a]pyrimidine-6-carboxylic acid ethyl ester] | 6.15
CCOC(=O)C1=C(C)N=c2s/c(=C/c3ccc(-c4ccc(Cl)c(C(=O)O)c4)o3)c(=O)n2C1c1ccccc1OC (stereo not shown) [Compound 56, 2-[5-(3-Carboxy-4-chloro-phenyl)-furan-2-ylmethylene]-5-(2-methoxy-phenyl)-7-methyl-3-oxo-2,3-dihydro-5H-thiazolo[3,2-a]pyrimidine-6-carboxylic acid ethyl ester] | 5.59
CCOC(=O)C1=C(C)N=c2s/c(=C\c3ccc(-c4ccccc4C(=O)O)o3)c(=O)n2C1c1ccc(SC)cc1 (stereo not shown) [Compound 58, 2-[5-(2-Carboxy-phenyl)-furan-2-ylmethylene]-7-methyl-5-(4-methylsulfanyl-phenyl)-3-oxo-2,3-dihydro-5H-thiazolo[3,2-a]pyrimidine-6-carboxylic acid ethyl ester] | 5.40

Next, values leading:

pIC50 | Structure (SMILES)
5.37 | CCOC(=O)C1=C(C)N=c2s/c(=C\c3ccc(-c4cccc(C(=O)O)c4)o3)c(=O)n2C1c1ccccc1 (stereo not shown) [Compound 46, 2-[5-(3-Carboxy-phenyl)-furan-2-ylmethylene]-7-methyl-3-oxo-5-phenyl-2,3-dihydro-5H-thiazolo[3,2-a]pyrimidine-6-carboxylic acid ethyl ester]
5.46 | CCOC(=O)C1=C(C)N=c2s/c(=C\c3ccc(-c4ccc(C(=O)O)cc4)o3)c(=O)n2C1c1ccc(C)cc1 (stereo not shown) [Compound 48]
5.40 | CCOC(=O)C1=C(C)N=c2s/c(=C\c3ccc(-c4cccc(C(=O)O)c4)o3)c(=O)n2C1c1ccccc1Cl (stereo not shown) [Compound 52, 2-[5-(3-Carboxy-phenyl)-furan-2-ylmethylene]-5-(2-chloro-phenyl)-7-methyl-3-oxo-2,3-dihydro-5H-thiazolo[3,2-a]pyrimidine-6-carboxylic acid ethyl ester]
5.43 | CCOC(=O)C1=C(C)N=c2s/c(=C\c3ccc(-c4ccc(C(=O)O)cc4)o3)c(=O)n2C1c1c(OC)ccc2ccccc12 (stereo not shown) [Compound 57, 2-[5-(4-Carboxy-phenyl)-furan-2-ylmethylene]-5-(2-methoxy-naphthalen-1-yl)-7-methyl-3-oxo-2,3-dihydro-5H-thiazolo[3,2-a]pyrimidine-6-carboxylic acid ethyl ester]
5.39 | CCOC(=O)C1=C(C)N=c2s/c(=C/c3ccc(-c4cccc(C(=O)O)c4)o3)c(=O)n2C1c1ccccc1OC (stereo not shown) [Compound 59, 2-[5-(3-Carboxy-phenyl)-furan-2-ylmethylene]-5-(2-methoxy-phenyl)-7-methyl-3-oxo-2,3-dihydro-5H-thiazolo[3,2-a]pyrimidine-6-carboxylic acid ethyl ester]

Same assay, conditions: Table 3, tricyclic thiazolidinones of Formula II; PLD isoform not stated; read-out: IC50

pIC50 | Structure (SMILES)
5.44 | Cc1cc2nc3s/c(=C\c4ccc(-c5ccc(O)c(C(=O)O)c5)o4)c(=O)n3c2cc1C [Compound 60, 5-[5-(6,7-Dimethyl-3-oxo-benzo[4,5]imidazo[2,1-b]thiazol-2-ylidenemethyl)-furan-2-yl]-2-hydroxy-benzoic acid]
5.47 | Cc1cc2nc3s/c(=C/c4ccc(-c5cccc(C(=O)O)c5)o4)c(=O)n3c2cc1C [Compound 61, 3-[5-(6,7-Dimethyl-3-oxo-benzo[4,5]imidazo[2,1-b]thiazol-2-ylidenemethyl)-furan-2-yl]-benzoic acid]

Source: patent US20040002526A1, “Phospholipase D inhibitors and uses thereof” (Cell Therapeutics, Inc., priority 2002, published 2004)
